For the assay, the target named is T1, short form of the GPR120 receptor (Homo sapiens, UniProt Q5NUL3).
T1 construct: host or cells: PathHunter CHO-K1 GPR120S beta-Arrestin Cell Line
T1 sequence (Q5NUL3 1-361): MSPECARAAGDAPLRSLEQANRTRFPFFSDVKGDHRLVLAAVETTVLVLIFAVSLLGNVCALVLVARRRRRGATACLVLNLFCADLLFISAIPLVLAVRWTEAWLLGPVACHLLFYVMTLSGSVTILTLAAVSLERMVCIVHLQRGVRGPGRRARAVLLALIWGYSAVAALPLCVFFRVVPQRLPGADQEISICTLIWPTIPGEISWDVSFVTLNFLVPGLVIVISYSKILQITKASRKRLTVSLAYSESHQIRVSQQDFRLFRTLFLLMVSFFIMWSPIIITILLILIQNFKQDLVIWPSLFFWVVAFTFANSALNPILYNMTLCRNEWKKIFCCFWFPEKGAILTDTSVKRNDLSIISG
Put plainly: Human GPR120 DiscoveRx PathHunter Beta-Arrestin Assay, Procedure B. It is filed as cell-based. To be noted: PathHunter CHO-K1 GPR120S cells, 5000 cells/well. From the text:
Human GPR120 DiscoveRx PathHunter® Beta-Arrestin Assay
The binding of an agonist (medium/long chain fatty acids or small molecule agonists) to the G-protein-coupled receptor GPR120 activates phospholipase C, leading to release of intracellular Ca^+2 through the generation of inositol 1,4,5-trisphosphate (InsP3 or IP3). GPR120 activation can also trigger intracellular signaling via recruitment of Beta-Arrestin. In the present method, agonist-induced activation of the human GPR120 receptor is monitored through the use of PathHunter® CHO-K1 GPR120 Beta-Arrestin Cell Line engineered by DiscoveRx, as detailed below. The cell lines were designed to co-express both the ProLink/Enzyme Donor (PK)-tagged GPCR and the Enzyme […] (EA)-tagged Beta-Arrestin fusion proteins. Upon GPR120 receptor stimulation/activation, the EA-tagged Beta-Arrestin portion is translocated to the tagged receptor, where the two enzyme fragments are brought within close proximity. Under these conditions, these fragments can interact and form an active Beta-gal enzyme complex through Enzyme Fragment Complementation (EFC). This active Beta-gal complex can enzymatically hydrolyse the substrate to produce a detectable light signal; therefore, activation as a function of agonist concentration can be expressed as an EC50 value to determine relative compound activities. This in vitro assay therefore serves to assess compound agonist activity of the GPR120.
In Procedure β-arrestin B the cells used were PathHunter® CHO-K1 GPR120S β-Arrestin Cell Line, expressing the short form of the GPR120 receptor (Accession #[…]), with 5000 cells/well.
The selected CHO-K1 GPR120 β-Arrestin cells were cultured in Ham's F12 media supplemented with 10% fetal bovine serum (FBS), 1% Glutamine, 1× p/s, 800 μg/mL G418 and 300 μg/mL Hygromycin B (for selection). Cell stocks were maintained and grown in a sub-confluent state using standard cell culture procedures. The day before the experiment, the cells were harvested with non-enzymatic cell dissociation buffer and re-suspended in complete growth media at the desired concentration. A Corning 384-plate was then seeded with the proper number of cells in a volume of 25 μL, per well. The seeded plates were incubated overnight at 37° C.
On the day of the experiment, the Assay Buffer containing (a) HBSS with Ca^++ and Mg^++, (b) 20 mM HEPES, and (c) 0.1% BSA stabilizer (pH 7.4) was prepared. The growth medium was gently removed from the cell plates and 20 μL of Assay Buffer added to each well. The plate was then incubated at 37° C. for 60 min. Test compounds were serially diluted in Assay Buffer to desired concentrations (more particularly to one or more of the following μM concentrations: 25, 12.5, 6.25, 3.12, 1.56, 0.78, 0.39, 0.19, 0.10, 0.05, 0.02, 0.01). Five μL of compound dilution was then added to each well and the plate incubated at 37° C. for 90 min. The detection reagents were prepared according to the manufacture's instruction. Twelve μL of the detection reagents were added to each well and the plate incubated at room temperature for 60 min.
The plates were read on an EnVision instrument, using Protocol name: Luminescence, Plate type: 384 Costar, Measurement height: 3 mm, Measurement time: 1 s, Aperture: 384 Plate aperture. The % Activity relative to the positive control was calculated using the following equation:
The % Activity values were plotted versus the concentration of test compound and fitted to a sigmoidal dose-response curve with a Hill slope=1 (fixed value) using nonlinear regression with GraphPad Prism 5.0 to calculate the EC50 values. The Fitting Equation was: Y=Bottom+(Top−Bottom)/(1+10^((Log EC50−X)*HillSlope)), where X is the log of the concentration and Y is the response.

Experimental findings from patent US20210024483A1, “HETEROCYLCOALKENYL DERIVATIVES USEFUL AS AGONISTS OF THE GPR120 AND / OR GPR40” (Janssen Pharmaceutica NV, priority 2018, published 2021) are described below.

With `Cc1c(CCC(=O)O)ccc(OCC2=C(c3ccc(Cl)cc3)COCC2)c1C` [ID No. 745, 3-[4-[[5-(4-chlorophenyl)-3,6-dihydro-2H-pyran-4-yl]methoxy]-2,3-dimethyl-phenyl]propanoic acid], a half-maximal effect (EC50) was put at 243 nM.
